Active and inactive are the calls of the source. The rule behind the calls is not given here.
Legend:
Mus musculus [1] = assay: Analgesic activity in sc dosed Swiss-Webster mouse after 30 mins; format: functional; conditions: 0.5 h
Mus musculus [2] = assay: Analgesic activity in sc dosed Swiss-Webster mouse time of peak effect; format: functional
Mus musculus [3] = assay: Analgesic activity in sc dosed Swiss-Webster mouse after 6.5 hrs; format: functional, organism-based
Mus musculus [4] = assay: Analgesic activity in Swiss-Webster mouse assessed as time required for sustainance of activity at 70 mg/kg, sc; format: functional; conditions: route subcutaneous

O=C(CBr)Nc1ccccc1CCN1CC[C@]23CCCC[C@H]2[C@H]1Cc1ccc(O)cc13
ED50 (Mus musculus [1]): 16 mg/kg | Time (Mus musculus [2]): 30 min | Activity (Mus musculus [3]): Active | Time (Mus musculus [4]): 6.5 h

From ChEMBL document CHEMBL3272313, “3-Hydroxy-17-aralkylmorphinans as potential opiate receptor-site-directed alkylating agents” (J Med Chem, 1977)
